From paper PMC6812009, “Covalent Aurora A regulation by the metabolic integrator coenzyme A” (Redox Biology, 2019)

Key:
Assay in all cases: Kinase profiling screen (radioactive filter-binding assay)
Type in all cases: biochemical
[1] = biological target: NEK6 (Homo sapiens, UniProt Q9HC98); conditions: 100 μM compound, 50 μM ATP; read-out: Kinase activity, % of activity in the absence of inhibitor
How it was run: (§1)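 Residual kinase activity is read in duplicate wells containing 100 μM final test compound (CoA, dpCoA or ADP). Recombinant kinases use model substrates at ATP levels optimal for each enzyme, across a 117-kinase screen.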

[2] = biological target: T1, EPH-B3 (Homo sapiens, UniProt P54753); conditions: 100 μM compound, 20 μM ATP; read-out: Kinase activity, % of activity in the absence of inhibitor
T1 sequence (P54753 34-998): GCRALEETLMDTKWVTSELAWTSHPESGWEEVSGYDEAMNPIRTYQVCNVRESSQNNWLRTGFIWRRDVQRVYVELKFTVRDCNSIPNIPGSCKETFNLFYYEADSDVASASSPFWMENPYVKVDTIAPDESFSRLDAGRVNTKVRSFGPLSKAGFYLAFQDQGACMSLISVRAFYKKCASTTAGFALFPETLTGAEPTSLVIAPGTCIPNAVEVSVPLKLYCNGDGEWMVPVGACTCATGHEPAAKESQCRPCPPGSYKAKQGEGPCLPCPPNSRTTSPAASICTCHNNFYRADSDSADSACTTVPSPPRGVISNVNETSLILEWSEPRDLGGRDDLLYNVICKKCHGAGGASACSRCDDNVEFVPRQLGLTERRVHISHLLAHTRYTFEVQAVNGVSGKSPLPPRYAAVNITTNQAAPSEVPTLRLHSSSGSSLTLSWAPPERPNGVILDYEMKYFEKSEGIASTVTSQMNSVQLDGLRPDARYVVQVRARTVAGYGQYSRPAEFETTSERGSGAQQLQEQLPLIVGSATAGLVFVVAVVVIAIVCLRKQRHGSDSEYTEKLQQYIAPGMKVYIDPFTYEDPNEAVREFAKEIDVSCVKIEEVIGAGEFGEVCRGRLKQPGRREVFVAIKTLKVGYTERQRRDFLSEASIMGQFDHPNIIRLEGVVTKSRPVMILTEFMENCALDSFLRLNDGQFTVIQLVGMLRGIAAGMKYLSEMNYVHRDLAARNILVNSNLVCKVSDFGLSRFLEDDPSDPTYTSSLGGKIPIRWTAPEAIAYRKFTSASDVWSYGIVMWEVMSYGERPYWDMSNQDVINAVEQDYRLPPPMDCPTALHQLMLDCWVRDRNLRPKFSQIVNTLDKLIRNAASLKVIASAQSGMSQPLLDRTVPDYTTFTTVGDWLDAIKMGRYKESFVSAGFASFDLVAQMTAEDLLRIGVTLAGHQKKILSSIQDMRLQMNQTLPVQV
How it was run: as §1

[3] = biological target: T2, SGK1 (Homo sapiens, UniProt O00141); conditions: 100 μM compound, 20 μM ATP; read-out: Kinase activity, % of activity in the absence of inhibitor
T2 sequence (O00141 1-431): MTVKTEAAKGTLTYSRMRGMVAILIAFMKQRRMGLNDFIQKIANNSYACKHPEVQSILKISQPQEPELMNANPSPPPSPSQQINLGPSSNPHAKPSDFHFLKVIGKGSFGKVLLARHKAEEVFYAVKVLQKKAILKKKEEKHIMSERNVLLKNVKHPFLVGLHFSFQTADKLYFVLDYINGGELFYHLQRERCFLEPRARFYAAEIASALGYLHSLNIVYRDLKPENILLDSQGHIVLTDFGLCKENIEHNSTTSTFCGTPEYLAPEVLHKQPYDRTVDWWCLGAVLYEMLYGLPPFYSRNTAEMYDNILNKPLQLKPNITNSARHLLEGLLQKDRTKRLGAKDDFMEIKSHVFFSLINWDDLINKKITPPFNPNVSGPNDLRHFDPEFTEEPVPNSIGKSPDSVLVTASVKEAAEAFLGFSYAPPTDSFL
How it was run: as §1

[4] = biological target: T3, NUAK1 (Homo sapiens, UniProt O60285); conditions: 100 μM compound, 20 μM ATP; read-out: Kinase activity, % of activity in the absence of inhibitor
T3 sequence (O60285 1-661): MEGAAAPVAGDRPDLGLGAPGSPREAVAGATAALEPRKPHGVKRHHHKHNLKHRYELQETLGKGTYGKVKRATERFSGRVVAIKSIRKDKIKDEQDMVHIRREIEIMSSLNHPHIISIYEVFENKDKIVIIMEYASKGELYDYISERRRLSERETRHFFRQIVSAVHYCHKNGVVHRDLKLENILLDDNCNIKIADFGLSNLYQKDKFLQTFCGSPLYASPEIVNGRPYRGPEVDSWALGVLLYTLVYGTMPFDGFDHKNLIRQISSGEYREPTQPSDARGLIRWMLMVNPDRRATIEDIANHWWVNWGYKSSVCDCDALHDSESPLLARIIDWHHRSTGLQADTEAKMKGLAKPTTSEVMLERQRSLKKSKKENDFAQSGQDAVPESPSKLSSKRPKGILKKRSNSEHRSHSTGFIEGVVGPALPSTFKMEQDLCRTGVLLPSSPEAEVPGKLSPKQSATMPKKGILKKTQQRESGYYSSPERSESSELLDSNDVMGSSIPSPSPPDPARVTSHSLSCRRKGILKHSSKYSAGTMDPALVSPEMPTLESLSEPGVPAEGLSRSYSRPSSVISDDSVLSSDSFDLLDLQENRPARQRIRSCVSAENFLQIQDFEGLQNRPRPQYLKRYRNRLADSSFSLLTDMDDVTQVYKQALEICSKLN
How it was run: as §1

[5] = biological target: ERK2 (Homo sapiens, UniProt P28482); conditions: 100 μM compound, 20 μM ATP; read-out: Kinase activity, % of activity in the absence of inhibitor
How it was run: as §1

[6] = biological target: PAK6 (Homo sapiens, UniProt Q9NQU5); conditions: 100 μM compound, 20 μM ATP; read-out: Kinase activity, % of activity in the absence of inhibitor
How it was run: as §1

[7] = biological target: CK1δ (Homo sapiens, UniProt P48730); conditions: 100 μM compound, 20 μM ATP; read-out: Kinase activity, % of activity in the absence of inhibitor
How it was run: as §1

Chain of PAK6 (Q9NQU5 whole entry): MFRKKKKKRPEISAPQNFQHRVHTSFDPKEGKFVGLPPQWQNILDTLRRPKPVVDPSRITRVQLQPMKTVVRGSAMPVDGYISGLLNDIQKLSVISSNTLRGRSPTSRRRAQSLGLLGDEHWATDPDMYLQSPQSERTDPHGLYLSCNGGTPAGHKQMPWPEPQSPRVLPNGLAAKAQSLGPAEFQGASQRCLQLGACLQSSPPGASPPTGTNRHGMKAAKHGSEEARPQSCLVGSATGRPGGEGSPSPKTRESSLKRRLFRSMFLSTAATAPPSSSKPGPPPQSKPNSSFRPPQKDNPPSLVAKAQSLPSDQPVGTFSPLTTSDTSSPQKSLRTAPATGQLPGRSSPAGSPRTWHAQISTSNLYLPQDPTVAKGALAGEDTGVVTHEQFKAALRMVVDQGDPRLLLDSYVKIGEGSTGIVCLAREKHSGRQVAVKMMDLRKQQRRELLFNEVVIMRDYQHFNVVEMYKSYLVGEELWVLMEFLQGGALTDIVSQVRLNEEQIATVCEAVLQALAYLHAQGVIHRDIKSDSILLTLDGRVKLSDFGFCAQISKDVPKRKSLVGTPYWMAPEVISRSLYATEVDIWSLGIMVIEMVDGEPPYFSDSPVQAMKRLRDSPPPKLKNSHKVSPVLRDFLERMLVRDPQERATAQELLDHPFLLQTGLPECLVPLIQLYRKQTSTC
Chain of ERK2 (P28482 whole entry): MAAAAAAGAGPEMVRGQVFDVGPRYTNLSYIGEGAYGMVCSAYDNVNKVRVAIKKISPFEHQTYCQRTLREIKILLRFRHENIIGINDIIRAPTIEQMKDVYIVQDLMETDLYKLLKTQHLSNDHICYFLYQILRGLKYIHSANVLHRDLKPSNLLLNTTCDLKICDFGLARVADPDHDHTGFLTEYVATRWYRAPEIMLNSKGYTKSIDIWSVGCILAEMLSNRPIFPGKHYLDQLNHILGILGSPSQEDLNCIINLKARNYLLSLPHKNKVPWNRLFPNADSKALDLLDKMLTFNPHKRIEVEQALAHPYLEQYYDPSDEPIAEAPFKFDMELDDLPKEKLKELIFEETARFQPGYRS
Chain of CK1δ (P48730 whole entry): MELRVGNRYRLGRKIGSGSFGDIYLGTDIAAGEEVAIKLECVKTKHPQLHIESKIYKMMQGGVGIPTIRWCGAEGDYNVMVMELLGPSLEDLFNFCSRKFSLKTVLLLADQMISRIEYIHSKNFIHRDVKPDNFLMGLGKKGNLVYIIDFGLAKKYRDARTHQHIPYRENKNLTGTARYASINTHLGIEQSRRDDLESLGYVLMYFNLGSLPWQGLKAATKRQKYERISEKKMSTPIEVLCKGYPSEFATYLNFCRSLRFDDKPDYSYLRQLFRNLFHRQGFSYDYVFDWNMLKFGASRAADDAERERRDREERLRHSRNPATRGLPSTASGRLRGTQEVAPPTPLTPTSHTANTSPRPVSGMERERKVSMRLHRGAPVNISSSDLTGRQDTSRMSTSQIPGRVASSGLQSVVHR
Chain of NEK6 (Q9HC98 whole entry): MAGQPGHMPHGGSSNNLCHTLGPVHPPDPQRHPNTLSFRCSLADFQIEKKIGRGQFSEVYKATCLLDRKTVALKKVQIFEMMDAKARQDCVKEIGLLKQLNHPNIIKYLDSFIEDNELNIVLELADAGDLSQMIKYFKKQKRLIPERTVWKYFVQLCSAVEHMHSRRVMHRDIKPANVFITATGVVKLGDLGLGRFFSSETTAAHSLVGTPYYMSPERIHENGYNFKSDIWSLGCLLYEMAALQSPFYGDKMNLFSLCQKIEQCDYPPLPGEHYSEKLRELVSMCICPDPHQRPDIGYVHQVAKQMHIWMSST

Row | SMILES | activity at 100 µM [1] | activity at 100 µM [2] | activity at 100 µM [3] | activity at 100 µM [4] | activity at 100 µM [5] | activity at 100 µM [6] | activity at 100 µM [7]
1 | Nc1ncnc2c1ncn2C1OC(COP(=O)(O)OP(=O)(O)O)C(O)C1O (stereo not drawn) [ADP] | 26.6% | 18% | 38.7% | 32.4% | 54.4% | 78.4% | 57.6%
2 | CC(C)(COP(=O)(O)OP(=O)(O)OC[C@H]1O[C@@H](n2cnc3c(N)ncnc32)[C@H](O)[C@@H]1OP(=O)(O)O)[C@@H](O)C(=O)NCCC(=O)NCCS [CoA, Coenzyme A] | 118% | 104% | 103% | 98.3% | 120% | 98.4% | 80.8%
3 | CC(C)(COP(=O)(O)OP(=O)(O)OCC1OC(n2cnc3c(N)ncnc32)C(O)C1O)C(O)C(=O)NCCC(=O)NCCS (stereo not drawn) [dpCoA, dephospho-CoA] | 69.6% | 94.4% | 74.3% | 68.3% | 81.7% | 101% | 80.4%
